Laboratory results: patent publication US20030229007A1, “Form of human renin and its use as a target in treatments for cardiac ischemia and arrhythmia” (priority 2002, published 2003)
Structures can show the parent of a compound that is named as a salt. Square brackets hold non-standard residues; d marks the D form. Peptide text beside a SMILES is read from it. * marks the point of attachment. Sta = CC(C)C[C@H](N)[C@@H](O)CC(=O)O; Isovaleryl = CC(C)CC(=O)*

Columns and labels:
[1] = tested on: human right atrial tissue; test: NE release from human right atrium incubated in ischemic conditions; type: cell-based; conditions: 70 min ischemia
Text: Source of human cardiac tissue. Specimens of right atrium (i.e., surgical waste tissue) were obtained from 34 patients undergoing cardiopulmonary bypass [29 males and 5 females, age 64.9±1.6 years; coronary artery bypass grafting (CABG) 30, valve replacement 4], following a protocol approved by the Institutional Review Board. Eight of the 30 CABG patients were chronically treated with β-adrenoceptor blocking agents. […] All patients chronically treated with ACE inhibitors were excluded from the study. At the time of surgery, a piece of atrial appendage measuring ˜1 cm^3 was removed from the atriotomy site.
Incubation of atrial tissue. Atrial specimens were immediately transported to the laboratory in ice-cold oxygenated Krebs-Henseleit solution (KHS) of the following composition (mM): NaCl 118.2, KCl 4.83, CaCl2 2.5, MgSO4 2.37, KH2PO4 1.0, NaHCO3 25, and glucose 11.1. After removal of fat and connective tissue, specimens were divided into several fragments (each weighing 24.5±1.1 mg, wet weight, measured at the end of incubation). Each fragment was incubated for 15 min at 37° C. in 2 ml of KHS gassed with 95% O2 and 5% CO2 (Po2 ˜550 mm Hg, pH ˜7.4) containing the monoamine oxidase inhibitor pargyline (1 mM). Following the 15-min stabilization period, fragments were incubated for an additional 20 min in oxygenated KHS in the absence or presence of pharmacological agents. […]

[2] = tested on: human cardiac synaptosomes (sympathetic nerve endings); test: Ischemic NE release from human cardiac synaptosomes incubated with angiotensinogen; type: cell-based; conditions: for effect on angiotensinogen-induced increase in ischemic NE release: angiotensinogen 400 nM
Protocol: (§1) Preparation of cardiac synaptosomes. Atrial specimens were freed from fat and connective tissue and minced in ice-cold 0.32 M sucrose containing 1 mM EGTA, pH 7.4, and 1 mM pargyline, to prevent enzymatic destruction of synaptosomal NE. Synaptosomes were isolated as previously described (Imamura et al., Circ. Res. 1995, 77:206-210). Briefly, minced tissue was digested with 120 mg collagenase (Type II, Worthington Biochemicals, Freehold, N.J.) per gm wet heart weight for 1 hr at 37° C. After low speed centrifugation (10 min at 120 g), the resulting pellet was suspended in 10 vol of 0.32 M sucrose and homogenized with a Teflon/glass homogenizer. The homogenate was spun at 650 g for 10 min and the pellet rehomogenized and respun. The pellet containing cellular debris was discarded, and the supernatants from the last two spins were combined and equally subdivided into 4 to 8 tubes and recentrifuged for 20 min at 20,000 g at 4° C. This pellet, which contained cardiac synaptosomes, was resuspended either in HEPES-buffered saline (HBS; 500 μl, normoxic conditions) or in glucose-free HBS which contained the reducing agent sodium dithionite (500 μl, ischemic conditions), and incubated in the absence or presence of angiotensinogen (for 1 hour) or other pharmacological agents for 20 min in a water bath at 37° C. prior to ischemia (see below). HBS contained 50 mM HEPES, pH 7.4, 144 mM NaCl, 5 mM KCl, 1.2 mM CaCl2, 1.2 mM MgCl2, 10 mM glucose. Each suspension functioned as an independent sample and was used only once. In every experiment, one sample was untreated (control, basal NE release).
Induction of ischemia. Ischemia was induced by incubating either atrial fragments or synaptosomes for 70 min in glucose-free KHS (atrial tissue) or HBS (synaptosomes) bubbled with 95% N2 and 5% CO2, containing the reducing agent sodium dithionite (3 mM; PO2 ˜0 mm Hg, pH ˜7.3; ischemic NE release) (Hatta et al. J. Pharmacol Exp. Ther. 1997, 283:494-500). […]

[3] = tested on: human cardiac synaptosomes (sympathetic nerve endings); test: Ischemic NE release from synaptosomes isolated from human right atrium; type: cell-based; conditions: 70 min ischemia
Protocol: as §1
Induction of ischemia. Ischemia was induced by incubating either atrial fragments or synaptosomes for 70 min in glucose-free KHS (atrial tissue) or HBS (synaptosomes) bubbled with 95% N2 and 5% CO2, containing the reducing agent sodium dithionite (3 mM; PO2 ˜0 mm Hg, pH ˜7.3; ischemic NE release) (Hatta et al. J. Pharmacol Exp. Ther. 1997, 283:494-500). Matched control fragments and synaptosomes were incubated for an equivalent length of time with oxygenated KHS and HBS, respectively (normoxic NE release). When drugs were used, they were continued throughout the entire normoxic and ischemic periods.
Norepinephrine assay. Incubating media were assayed for NE by high pressure liquid chromatography with electrochemical detection (Hatta et al. J. Pharmacol Exp. Ther. 1997, 283:494-500). Perchloric acid and EDTA were added to samples to achieve final concentrations of 0.01 N and 0.025%, respectively. The NE present in the effluent was adsorbed on acid-washed alumina adjusted at pH 8.6 with Tris-2% EDTA buffer, and then extracted into 150 μl of 0.1 N perchloric acid. These final sample aliquots were injected onto a 3 μm ODS reverse-phase column (3.2×100 mm, Bioanalytical System, West Lafayette, Ind.) with an applied potential of 0.65 V. The mobile phase consisted of monochloroacetic acid (75 mM), sodium EDTA (0.5 mM), sodium octylsulfate (0.5 mM) and acetonitrile (1.5%) at pH 3.0. The flow rate was 1.0 ml/min. No NE breakdown occurred during the 70-min ischemic period. Dihydroxybenzylamine was added to each sample as an internal standard prior to alumina extraction and used for calculation of the recovery during the extraction procedure. This recovery was 77% or better. The detection limit was approximately 0.2 pmol.

[4] = tested on: human right atrial tissue; conditions: as previously reported (Hatta et al. 1997); cited from earlier work

With CC(C)C[C@H](O)[C@H](O)[C@H](CC1CCCCC1)NC(=O)[C@@H](CC(=O)N(CC(=O)N(C)CCc1ccccn1)CC1CCCCC1)Cc1csc(N)n1 [BILA 2157BS] the “decrease in NE release” value ([1]; 30 nM) was roughly 60%, the “effect on angiotensinogen-induced increase in ischemic NE release” value ([2]; 100 nM) was “prevented” and the “suppression of the enhancement in NE release elicited by ischemia” value ([3]; 100 nM) was roughly 70%.

For CNCCCN1c2ccccc2CCc2ccccc21 [DMI, desipramine hydrochloride], the “effect on ischemic NE release from atrial tissue” value [4] is given as “inhibited” and the inhibition at 0.3 µM ([3]; Homo sapiens, 70 min, 300 nM) is given as roughly 50%.

With CCN(c1nc(N)c(C(=O)N=C(N)N)nc1Cl)C(C)C [EIPA, 5-(N-ethyl-N-isopropyl)-amiloride] the “inhibition of ischemic NE release” value ([3]; 30 μM) was roughly 50%.

With C[C@H](N[C@@H](CCc1ccccc1)C(=O)O)C(=O)N1CCC[C@H]1C(=O)O [enalaprilat, Enalaprilat] the “effect on angiotensinogen-induced increase in ischemic NE release” value ([2]; 3 μM) was “prevented” and the “reduction of the increase in NE release caused by ischemia” value ([3]; 3 μM) was roughly 80%.

With CC(C)CC(=O)N[C@H](C(=O)N[C@H](C(=O)N[C@@H](CC(C)C)[C@@H](O)CC(=O)N[C@@H](C)C(=O)N[C@@H](CC(C)C)[C@@H](O)CC(=O)O)C(C)C)C(C)C [pepstatin-A] (Isovaleryl-VV[Sta]A[Sta]-OH) the “decrease in NE release” value ([1]; 30 μM) was roughly 70% and the “suppression of the enhancement in NE release elicited by ischemia” value ([3]; 30 μM) was roughly 70%.

B1: angiotensinogen: Human plasma angiotensinogen, renin substrate, purchased from Sigma-Aldrich (protein, UniProt P01019 25-476, looked up)
Angiotensinogen: DRVYIHPFHLVIHNESTCEQLAKANAGKPKDPTFIPAPIQAKTSPVDEKALQDQLVLVAAKLDTEDKLRAAMVGMLANFLGFRIYGMHSELWGVVHGATVLSPTAVFGTLASLYLGALDHTADRLQAILGVPWKDKNCTSRLDAHKVLSALQAVQGLLVAQGRADSQAQLLLSTVVGVFTAPGLHLKQPFVQGLALYTPVVLPRSLDFTELDVAAEKIDRFMQAVTGWKTGCSLMGASVDSTLAFNTYVHFQGKMKGFSLLAEPQEFWVDNSTSVSVPMLSGMGTFQHWSDIQDNFSVTQVPFTESACLLLIQPHYASDLDKVEGLTFQQNSLNWMKKLSPRTIHLTMPQLVLQGSYDLQDLLAQAELPAILHTELNLQKLSNDRIRVGEVLNSIFFELEADEREPTESTQQLNKPEVLEVTLNRPFLFAVYDQSATALHFLGRVANPLSTA
With B1 the “increase in ischemic NE release” value ([2]; 400 nM angiotensinogen, 70 min ischemia) was roughly 70%.
